One experiment deals with Acetylcholinesterase (Homo sapiens, UniProt P22303). The experiment in a line: Inhibition of AChe (unknown origin) incubated for 0.25 hrs by DTNB-reagent based Ellman's method. (In general: Ellman's reagent forms a yellow product with free thiols.)
Experiment [1] deals with RAW264.7. The experiment in a line: Anti-inflammatory activity in mouse RAW264.7 cells assessed as inhibition of LPS-induced NO production incubated for 36 hrs by Griess assay. Conditions: for IC50: RAW264.7, 36 h. The experiment is classed as functional, cell-based. (Nitrite, measured by Griess reagent, commonly stands in for NO production.)
In experiment [2] the test system is RAW264.7. The experiment in a line: Anti-inflammatory activity in mouse RAW264.7 cells assessed as downregulation of the LPS-induced IL-10 mRNA expression at 12.5 to 50 uM by qRT-PCR analysis. The experiment is classed as functional, cell-based. Conditions: dose 12.5-50 µM. On the technique in general: Real-time PCR tracks product formation cycle by cycle.
Experiment [3] deals with RAW264.7. The experiment in a line: Anti-inflammatory activity in mouse RAW264.7 cells assessed as alleviation of LPS-induced IL-6 mRNA expression level at 12.5 to 50 uM by qRT-PCR analysis. In kind it is functional, cell-based. Particulars: dose 12.5-50 µM.
The test system of experiment [4] is RAW264.7. The experiment in a line: Anti-inflammatory activity in mouse RAW264.7 cells assessed as alleviation of LPS-induced IL-1 beta mRNA expression level at 12.5 to 50 uM by qRT-PCR analysis. The experiment is classed as functional, cell-based. Particulars: dose 12.5-50 µM.
The subject of experiment [5] is RAW264.7. The experiment in a line: Anti-inflammatory activity in mouse RAW264.7 cells assessed as alleviation of LPS-induced TNF-alpha mRNA expression level at 12.5 to 50 uM by qRT-PCR analysis. In kind it is functional, cell-based. Particulars: dose 12.5-50 µM.
Experiment [6] deals with RAW264.7. The experiment in a line: Anti-inflammatory activity in mouse RAW264.7 cells assessed as alleviation of LPS-induced cox-2 mRNA expression level at 12.5 to 50 uM by qRT-PCR analysis. In kind it is functional, cell-based. Particulars: dose 12.5-50 µM.
Experiment [7] deals with RAW264.7. The experiment in a line: Anti-inflammatory activity in mouse RAW264.7 cells assessed as downregulation of the LPS-induced iNOS expression at 12.5 to 50 uM by qRT-PCR analysis. Particulars: dose 12.5-50 µM. In kind it is functional, cell-based.
The test system of experiment [8] is RAW264.7. The experiment can be described thus: Anti-inflammatory activity in mouse RAW264.7 cells assessed as alleviation of LPS-induced IL-6 mRNA expression level at 10 to 40 uM by qRT-PCR analysis. In kind it is functional, cell-based. Particulars: dose 10-40 µM.
Experiment [9] concerns RAW264.7. The experiment can be described thus: Anti-inflammatory activity in mouse RAW264.7 cells assessed as alleviation of LPS-induced IL-1 beta mRNA expression level at 10 to 40 uM by qRT-PCR analysis. The experiment is classed as functional, cell-based. Conditions: dose 10-40 µM.
Experiment [10] relates to RAW264.7. The experiment can be described thus: Anti-inflammatory activity in mouse RAW264.7 cells assessed as alleviation of LPS-induced TNF-alpha mRNA expression level at 10 to 40 uM by qRT-PCR analysis. The experiment is classed as functional, cell-based. Conditions: dose 10-40 µM.
Experiment [11] relates to RAW264.7. The experiment in a line: Anti-inflammatory activity in mouse RAW264.7 cells assessed as alleviation of LPS-induced COX-2 mRNA expression level at 10 to 40 uM by qRT-PCR analysis. The experiment is classed as functional, cell-based. Particulars: dose 10-40 µM.

For orientation: IC50 means the point on the concentration scale where inhibition reaches its midpoint.

Structures are written as SMILES. Activity calls are given as the source filed them. No cut-off for these calls is given here.

Chain of Acetylcholinesterase (P22303 whole entry): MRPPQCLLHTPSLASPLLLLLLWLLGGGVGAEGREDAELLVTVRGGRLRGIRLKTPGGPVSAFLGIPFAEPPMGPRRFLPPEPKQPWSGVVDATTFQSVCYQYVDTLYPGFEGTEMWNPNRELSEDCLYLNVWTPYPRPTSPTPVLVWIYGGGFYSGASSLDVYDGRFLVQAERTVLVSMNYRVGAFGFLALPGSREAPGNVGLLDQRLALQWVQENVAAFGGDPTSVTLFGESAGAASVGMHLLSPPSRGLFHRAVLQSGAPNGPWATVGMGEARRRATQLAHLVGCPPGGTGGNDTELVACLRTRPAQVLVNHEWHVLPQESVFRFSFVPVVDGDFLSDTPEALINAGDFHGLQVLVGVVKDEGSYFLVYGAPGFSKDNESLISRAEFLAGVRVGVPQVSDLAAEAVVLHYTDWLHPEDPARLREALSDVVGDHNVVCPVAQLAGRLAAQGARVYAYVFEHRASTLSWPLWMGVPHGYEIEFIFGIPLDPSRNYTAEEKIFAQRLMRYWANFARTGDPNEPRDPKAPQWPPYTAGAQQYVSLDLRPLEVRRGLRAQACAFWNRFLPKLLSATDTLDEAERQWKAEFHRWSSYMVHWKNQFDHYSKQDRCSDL

`CCOC(=O)c1c(O)cc(O)c(Cc2c(O)cc(C)c(C(=O)OC)c2O)c1C`: the IC50 was determined as 20 µM against Acetylcholinesterase and 35 µM with RAW264.7 [1]. For the same compound, the result in the experiment on RAW264.7 [2] was Active.

`COC(=O)c1c(C)cc(O)c(Cc2c(O)cc(C)cc2O)c1O`: inhibition on Acetylcholinesterase was half-maximal at 15 µM (IC50). In addition, the result in the experiment with RAW264.7 [1] was inactive.

For `CCOC(=O)c1c(C)cc(O)c(Cc2c(C)c(C(=O)OC)c(O)c(C)c2O)c1O`, the IC50 in the experiment on RAW264.7 [1] was 28 µM. The result with RAW264.7 [3], in the experiment with RAW264.7 [4], in the experiment on RAW264.7 [5], in the experiment with RAW264.7 [6] and in the experiment with RAW264.7 [7] was Active.

`COCc1c(O)c(Oc2c(C=O)c(O)cc(C)c2C(=O)OC)c2c(c1O)C(=O)O[C@H]2O` returned an IC50 against Acetylcholinesterase of 7.1 µM. Also, in the experiment on RAW264.7 [1], the outcome was inactive.

The compound `OCc1cc(O)cc(O)c1` had an IC50 on Acetylcholinesterase of 28 µM. For the same compound, the result with RAW264.7 [1] was inactive.

Turning to `Cc1cc(O)c(C)c(O)c1`, at Acetylcholinesterase, half-maximal inhibition (IC50) required 25 µM. Also, in the experiment on RAW264.7 [1], the result was inactive.

As for `COC(=O)c1c(C)cc(O)cc1O` [METHYL ORSELLINATE], the IC50 against Acetylcholinesterase was determined as 24 µM. Further, in the experiment on RAW264.7 [1], the result was inactive.

`CCOC(=O)c1c(C)cc(OC(=O)c2c(C)cc(O)cc2O)cc1O` returned an IC50 at Acetylcholinesterase of 15 µM. Also, in the experiment on RAW264.7 [1], the outcome was inactive.

`Cc1cc(O)cc(O)c1C(=O)O` [ORSELLINIC ACID]: at Acetylcholinesterase, the IC50 was determined as 26 µM. For the same compound, the result with RAW264.7 [1] was inactive.

At Acetylcholinesterase, `Cc1cc(O)cc(OC(=O)c2c(C)cc(O)c(C=O)c2O)c1` registered an IC50 of 15 µM. Moreover, the result in the experiment with RAW264.7 [1] was inactive.

With `CC(=O)C1=C(O)C=C2Oc3c(C(C)=O)c(O)c(C)c(O)c3[C@@]2(C)C1=O` [(+)-USNIC ACID], the IC50 against Acetylcholinesterase came to 28 µM. Further, the outcome in the experiment with RAW264.7 [1] was inactive.

Take `CCOC(=O)c1c(O)cc(O)c(Cc2c(O)cc(C)c(C(=O)OCC)c2O)c1C`: inhibition on Acetylcholinesterase was half-maximal at 19 µM (IC50). In the experiment on RAW264.7 [1], the outcome was inactive.

Take `COC(=O)c1c(C)cc(O)c(Cc2c(C)c(C(=O)OC)c(O)c(C)c2O)c1O`: the IC50 in the experiment on RAW264.7 [1] was 20 µM. Moreover, the outcome in the experiment on RAW264.7 [8], in the experiment on RAW264.7 [9], in the experiment on RAW264.7 [10] and in the experiment on RAW264.7 [11] was Active.

(Values after ChEMBL document CHEMBL6153146, “Secondary Metabolites of the Lichen Lethariella cladonioides and Their Neuroprotective Potential” (J Nat Prod, 2025).)
